“And” between values parts separate entries of the source, which are not always exact repeats. Identical values can stand only once.
How the values were obtained:
[1] = In vitro-in vivo extrapolation (IVIVE) to estimate Css, rat
Method: Intrinsic hepatic clearance (Clint) and fraction unbound in plasma (fup) were calculated from the experimental point estimate data as described in Dobreniecki et al.. Steady-state concentrations (Css) were derived based on zero-order uptake of an assumed daily dose from the gut (assuming 100% intestinal bioavailability) but considering hepatic clearance and non-metabolic renal clearance. Renal clearance was calculated using the glomerular filtration rate (a species-dependent constant) and the fraction unbound in blood (fub), estimated by adjusting the experimental fup for blood/plasma partitioning. The Css calculations, along with underlying species-specific physiologic scalars, are detailed in SI Texts S6 and S7. […]
hepatocytes). In equation (C), the scalar 2000 is used to adjust the assay cell number to be consistent with units of 1 million cells in the Clint equation.
Text S7 In Vitro-In Vivo Extrapolation (IVIVE) Calculations
The pharmacokinetic equation used to estimate expected steady-state concentrations (Css) is based on zero-order uptake of a daily dose from the gut (assuming 100% bioavailability) with both nonmetabolic renal clearance (Clrenal) and hepatic clearance (Clhepatic) (Equation D). The chemical input rate (ko) is the product of the intake dosage and the model body weight; this represents the numerator of Equation D. The Clrenal calculation is shown in the first part of the denominator of Equation D; it is the product of the species-dependent glomerular filtration rate (GFR) and the unbound fraction in blood (fub) of the parent compound. The Clhepatic calculation is shown in the second part of the denominator of Equation D; it is the product of the species-dependent liver blood flow constant, the fub of the parent compound, and the experimentally derived intrinsic clearance (shown in Equation C) divided by the sum of these three values. All values used in Equation D are for first-order conditions of metabolism in the […]

[2] = Liver dosimetry of PFHxSA and PFHxS by targeted LC/MS/MS; format: in vivo, rat; details: for PFHxS Male Liver Conc. (wet weight) / PFHxS Female Liver Conc. (wet weight) / concentration at 24 h: individual rats; for PFHxS Male Liver Conc. (wet weight) / concentration at 24 h: male; for concentration at 24 h: Sprague Dawley (Crl:CD(SD)), liver, oral, read-out: PFHxS Male Liver Conc. (wet weight)
Excerpt: (§1) The plasma and liver samples for this investigation were provided by Mutlu et al.. The study design, including detailed descriptions of animal handling, procedures for dosing, clinical observations, termination, and collection of tissues, is reported elsewhere and is consistent with the ARRIVE guidelines. Briefly, male and female Sprague Dawley (SD) rats (Crl:CD(SD)) (n = 48/sex, 96 total) were purchased from Charles River Laboratory (Raleigh, NC, USA) and allowed to acclimate for ≥5 days before initial dosing. Rats were 8–10 weeks old at the time of exposure. PFHxSA dosing solutions in corn oil were prepared on Day 0 and used over the course of the study. Rats of both sexes (n = 5/sex, dose, and time point, plus eight vehicle controls per sex) were dosed by oral gavage (5 mL/kg body weight) once daily for five days. […] The formulation concentrations decreased from 100 mg/kg/day at half-log10 intervals until the lowest dose level, which was a full log10 interval below the next higher dose, giving eight dose levels (0.01 to 100 mg/kg/day or 0.025 µmol/kg/day to 250 µmol/kg/day) in addition to vehicle controls. Doses were administered in randomized order within ± 1 h on each day of dosing. […] Rats were euthanized 24 h after the last dose. Blood was collected via cardiac puncture with tripotassium ethylene diamine tetraacetic acid (K3EDTA) as an anti-coagulant and centrifuged to collect cell-free plasma. Liver was collected and flash-frozen in liquid nitrogen. Liver, plasma, and dosing formulation samples were frozen at the USEPA Center for Computational Toxicology and Exposure (CCTE), Durham, NC, USA. Tissue samples (plasma and liver, n = 96 each) were stored at ≤−70 °C prior to extraction; dosing formulation samples (n = 9) were stored at −20 °C.
(§2) Detailed information on solvents and standards used for targeted LC/MS/MS of PFHxSA and PFHxS can be found in SI Text S1 and SI Table S1. Plasma and liver preparations were modified from Conley et al.. Briefly, aliquots of plasma (25 µL) and liver (~10 mg) were spiked with PFOSA as an internal standard, as no isotope-labeled PFHxSA was available. Sample batches included up to 96 samples along with an MB, CCV, and LCS for QC. Commercial plasma (mixed-sex SD rat plasma) and liver (mixed-sex SD rat) were obtained from BioIVT (Westbury, NY, USA). Cold acetonitrile (ACN) with 0.1 M formic acid was used to precipitate proteins. Liver and plasma samples were prepared similarly, except that the livers were homogenized after solvent addition. Plasma samples were vortexed to mix before being chilled at −20 °C, after which samples were centrifuged at 5 °C and 10,000× g. Liver samples were chilled at −80 °C, then homogenized using an Omni International (Kennesaw, GA, USA) Bead Ruptor 24. Liver homogenates were centrifuged at 26,000× g and 5 °C. Supernatants from the extraction of both matrices were removed and stored at −20 °C until analysis. Refer to SI Text S4 for additional experimental details and information on calibration and QC parameters for quantitation of PFHxSA.
(§3) Targeted LC/MS/MS of PFHxSA was performed on a Sciex 4000 QTRAP LC/MS/MS system operated in negative ESI mode with MRM scanning. A Restek (Bellefonte, PA, USA) Raptor Polar X (100 mm × 2 mm, 2.7 µm) column was used for liquid chromatography. Isocratic elution occurred over 10 min with a 30:70 ratio of mobile phase A (10 mM ammonium formate): mobile phase B (60:40 ACN: methanol). Both mobile phases included 0.05% formic acid. The LOQs for PFHxSA were 0.100 µM in plasma and 0.351 µM in liver. Additional details of the instrument method parameters for targeted analysis of PFHxSA are provided in SI Table S5. The MRM transitions for the PFHxSA method are provided in SI Table S6. […]

[3] = Plasma dosimetry of PFHxSA and PFHxS by targeted LC/MS/MS; format: in vivo, rat; details: for concentration at 24 h: male, Sprague Dawley (Crl:CD(SD)), rat, oral, mean ± SD, read-out: PFHxS Male Plasma Conc.
Excerpt: as §1, §2, §3

[4] = PFHxSA 10 mg/kg/day oral 5 days
[5] = PFHxSA 30 mg/kg/day oral 5 days
[6] = PFHxSA 100 mg/kg/day oral 5 days

For `O=S(=O)(O)C(F)(F)C(F)(F)C(F)(F)C(F)(F)C(F)(F)C(F)(F)F` [PFHxS, perfluorohexane sulfonic acid], the “Css (steady-state concentration)” value ([1]; Rat, IVIVE-derived, assumes 1 mg/kg/day exposure) was 243 µM, the CL renal ([1]; Rat, non-metabolic, GFR x fub, read-out: Clrenal (renal clearance) (converted)) was 0.00167 mL/min and the “PFHxS Css higher than PFHxSA Css” value ([1]; rat) was 1.8 fold. The “PFHxS Male Liver Conc. (wet weight)” value ([2]; PFHxSA 0.3 mg/kg/day oral 5 days) was 2.31 ng/mg and 3.68 µM and 0.95 µM and 2.30 µM and 0.85 µM and 1.47 ng/mg and 0.381 ng/mg and 0.921 ng/mg and 0.340 ng/mg, the “PFHxS Male Liver Conc. (wet weight)” value ([2]; PFHxSA 1 mg/kg/day oral 5 days) was 2.73 ng/mg (2×) and 2.38 ng/mg and 3.34 µM and 5.56 µM and 6.81 µM (2×) and 5.95 µM and 1.34 ng/mg and 2.23 ng/mg and the “PFHxS Male Liver Conc. (wet weight)” value ([2]; PFHxSA 3 mg/kg/day oral 5 days) was 4.61 ng/mg and 5.83 ng/mg and 4.92 ng/mg and 3.19 ng/mg and 11.5 µM and 14.6 µM and 12.3 µM and 7.97 µM. The “PFHxS Female Liver Conc. (wet weight)” value [2, 4] was 0.301 ng/mg and 0.776 ng/mg and 0.700 ng/mg and 1.18 ng/mg and 1.13 ng/mg and 0.753 µM and 1.94 µM and 1.75 µM and 2.96 µM and 2.81 µM, the “PFHxS Male Liver Conc. (wet weight)” value [2, 4] was 8.96 ng/mg and 6.84 ng/mg and 9.88 ng/mg and 7.36 ng/mg and 22.4 µM and 17.1 µM and 24.7 µM and 18.4 µM and the “PFHxS Female Liver Conc. (wet weight)” value [2, 5] was 1.72 ng/mg and 2.56 ng/mg and 1.26 ng/mg and 1.35 ng/mg and 2.38 ng/mg and 4.31 µM and 6.39 µM and 3.15 µM and 3.37 µM and 5.96 µM. The “PFHxS Male Liver Conc. (wet weight)” value [2, 5] was 16.3 ng/mg and 15.3 ng/mg and 15.2 ng/mg and 24.0 ng/mg and 40.7 µM and 38.2 µM and 38.3 µM and 60.1 µM, the “PFHxS Female Liver Conc. (wet weight)” value [2, 6] was 4.16 µM and 2.21 µM and 10.2 µM and 5.79 µM and 2.07 µM and 1.66 ng/mg and 0.885 ng/mg and 4.07 ng/mg and 2.32 ng/mg and 0.826 ng/mg and the “PFHxS Male Liver Conc. (wet weight)” value [2, 6] was 67.1 ng/mg and 88.3 ng/mg and 41.9 ng/mg and 34.0 ng/mg and 44.5 ng/mg and 168 µM and 221 µM and 105 µM and 85.1 µM. For the same compound, the “PFHxS lower than PFHxSA in female liver, on average” value ([2]; female rats, after oral PFHxSA) was 2.9 fold, the concentration at 24 h ([2]; rat, PFHxSA 3 mg/kg/day oral 5 days) was 3100 ng/g and 7.74 µM and the concentration at 24 h ([2]; rat, PFHxSA 10 mg/kg/day oral 5 days) was 7940 ng/g and 19.9 µM. For the same compound, the concentration at 24 h ([2]; rat, PFHxSA 30 mg/kg/day oral 5 days) was 14500 ng/g and 36.2 µM, the “Male PFHxS liver concentrations versus females at equivalent dose levels” value ([2]; rat, in vivo) was “approximately ten-fold greater” and the “Male PFHxS plasma concentrations higher than female at the same dose level” value ([3]; across the dose range) was 4–10 times. The “Female level of PFHxS lower than males, on average” value ([3]; doses of 10 mg/kg/day and up, plasma) was 5.3 fold, the “PFHxS lower than PFHxSA in female plasma, on average” value ([3]; female rats, after oral PFHxSA) was 5.3 fold and the “PFHxS plasma concentrations higher than coincident PFHxSA plasma levels” value ([3]; male rats, PFHxSA 30 and 100 mg/kg/day) was 1.6- to 6 fold. It also gave a concentration at 24 h ([3]; plasma, PFHxSA 10 mg/kg/day oral 5 days, male rats) of 76.9 µM, a concentration at 24 h ([3]; plasma, PFHxSA 30 mg/kg/day oral 5 days, male rats) of 136 µM and a concentration at 24 h ([3]; plasma, PFHxSA 100 mg/kg/day oral 5 days, male rats) of 396 µM. For the same compound, the “Male PFHxS/PFHxSA concentration ratios higher than female ratios” value ([3]; plasma and liver) was “approximately 10 fold”.

Source: PMC12737022, “Evaluations of Sex Differences in Dosimetry in Rats Following Perfluorohexanesulfonamide (PFHxSA) Oral Exposure” (Toxics, 2025)
